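Values below derive from 48-hour exposures of cells grown in 96-well plates, with endpoints linearly interpolated between the two concentrations bracketing the appropriate inhibition level. The concentration for 50% growth inhibition is given as GI50. TGI: total growth inhibition.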
Columns and labels:
Test in all cases: growth of human tumour cells (NCI), 48 h
[1] = system: SK-OV-3 ovarian
[2] = system: A498 renal
[3] = system: OVCAR-8 ovarian
[4] = system: HOP-62 NSCLC
[5] = system: OVCAR-3 ovarian
[6] = system: HL-60(TB) leukemia
[7] = system: HS 578T breast
[8] = system: NCI-H460 lung
[9] = system: U251 CNS
[10] = system: RPMI-8226 leukemia
[11] = system: NCI-H522 lung
[12] = system: SNB-19 CNS
[13] = system: UACC-257 melanoma
[14] = system: T-47D breast
[15] = system: NCI-H23 lung
[16] = system: OVCAR-4 ovarian
[17] = system: NCI-H226 lung
[18] = system: PC-3 prostate
[19] = system: DU-145 prostate
[20] = system: M14 melanoma
[21] = system: MDA-MB-435
[22] = system: KM12 colon
[23] = system: SK-MEL-28 melanoma
[24] = system: TK-10 renal
[25] = system: SF-268 CNS
[26] = system: 786-0 renal
[27] = system: MCF7 breast
[28] = system: NCI/ADR-RES ovarian
[29] = system: SF-295 CNS
[30] = system: HOP-92 NSCLC
[31] = system: MDA-MB-468 breast
[32] = system: SW-620 colon
[33] = system: UACC-62 melanoma
[34] = system: SN12C renal
[35] = system: SR leukemia
[36] = system: OVCAR-5 ovarian
[37] = system: SF-539 CNS
[38] = system: MOLT-4 leukemia
[39] = system: CAKI-1 renal
[40] = system: MALME-3M melanoma
[41] = system: HT29 colon
[42] = system: A549 NSCLC
[43] = system: BT-549 breast
[44] = system: LOX IMVI melanoma
[45] = system: CCRF-CEM leukemia
[46] = system: HCT-116 colon
[47] = system: HCC-2998 colon
[48] = system: EKVX NSCLC
[49] = system: ACHN renal
[50] = system: COLO 205 colon
[51] = system: K-562 leukemia
[52] = system: IGROV1 ovarian
[53] = system: RXF 393 renal
[54] = system: SK-MEL-5 melanoma
[55] = system: HCT-15 colon

CC[C@]12C=CCN3CC[C@@]4(c5ccc(OC)cc5N(C)[C@H]4[C@@](O)(C(=O)OC)[C@@H]1OC(=O)CCC[P+](C1CCCCC1)(C1CCCCC1)C1CCCCC1)[C@@H]32
GI50 [1]: 2.59 µM | TGI [1]: 7.57 µM | GI50 [2]: 12.4 µM | TGI [2]: 26.2 µM | GI50 [3]: 2.97 µM | TGI [3]: 11.7 µM | GI50 [4]: 3.68 µM | TGI [4]: 13.7 µM | GI50 [5]: 1.74 µM | TGI [5]: 9.08 µM | GI50 [6]: 0.322 µM | TGI [6]: 1.34 µM | GI50 [7]: 2.45 µM | TGI [7]: 7.91 µM | GI50 [8]: 2.77 µM | TGI [8]: 11.3 µM | GI50 [9]: 0.746 µM | TGI [9]: 11.8 µM | GI50 [10]: 0.383 µM | TGI [10]: 2.22 µM | GI50 [11]: 0.688 µM | TGI [11]: 4.98 µM | GI50 [12]: 2.22 µM | TGI [12]: 11.5 µM | GI50 [13]: 1.26 µM | TGI [13]: 3.34 µM | GI50 [14]: 1.32 µM | TGI [14]: 11.4 µM | GI50 [15]: 2.31 µM | TGI [15]: 8.3 µM | GI50 [16]: 2.39 µM | TGI [16]: 12.4 µM | GI50 [17]: 4.06 µM | TGI [17]: 17.2 µM | GI50 [18]: 1.71 µM | TGI [18]: 11.4 µM | GI50 [19]: 3.75 µM | TGI [19]: 15.2 µM | GI50 [20]: 1.92 µM | TGI [20]: 8.29 µM | GI50 [21]: 1.83 µM | TGI [21]: 5.33 µM | GI50 [22]: 1.63 µM | TGI [22]: 4.08 µM | GI50 [23]: 1.08 µM | TGI [23]: 2.76 µM | GI50 [24]: 2.73 µM | TGI [24]: 12.1 µM | GI50 [25]: 3.23 µM | TGI [25]: 13 µM | GI50 [26]: 4.45 µM | TGI [26]: 16.7 µM | GI50 [27]: 1.19 µM | TGI [27]: 7.67 µM | GI50 [28]: 35.6 µM | TGI [28]: > 100 µM | GI50 [29]: 4.41 µM | TGI [29]: 16.5 µM | GI50 [30]: 1.01 µM | TGI [30]: 4.03 µM | GI50 [31]: 0.313 µM | TGI [31]: 1.29 µM | GI50 [32]: 2.95 µM | TGI [32]: 14.6 µM | GI50 [33]: 1.41 µM | TGI [33]: 3.06 µM | GI50 [34]: 2.89 µM | TGI [34]: 10.1 µM | GI50 [35]: 1.35 µM | TGI [35]: 4.01 µM | GI50 [36]: 3.19 µM | TGI [36]: 12 µM | GI50 [37]: 2.94 µM | TGI [37]: 10.7 µM | GI50 [38]: 2.16 µM | TGI [38]: 6.51 µM | GI50 [39]: 16.4 µM | TGI [39]: 30.3 µM | GI50 [40]: 1.46 µM | TGI [40]: 3.26 µM | GI50 [41]: 1.88 µM | TGI [41]: 4.05 µM | GI50 [42]: 3.46 µM | TGI [42]: 13.7 µM | GI50 [43]: 2.44 µM | TGI [43]: 5.82 µM | GI50 [44]: 2.88 µM | TGI [44]: 10.5 µM | GI50 [45]: 1.69 µM | TGI [45]: 11.6 µM | GI50 [46]: 2.85 µM | TGI [46]: 11.4 µM | GI50 [47]: 1.7 µM | TGI [47]: 7.68 µM | GI50 [48]: 3.09 µM | TGI [48]: 16 µM | GI50 [49]: 15.2 µM | TGI [49]: 28.6 µM | GI50 [50]: 0.43 µM | TGI [50]: 1.44 µM | GI50 [51]: 1.32 µM | TGI [51]: 12.5 µM | GI50 [52]: 1.39 µM | TGI [52]: 5.28 µM | GI50 [53]: 1.47 µM | TGI [53]: 5.04 µM | GI50 [54]: 1.76 µM | TGI [54]: 3.28 µM | GI50 [55]: 15.3 µM | TGI [55]: 29.2 µM

Source: PubChem BioAssay (NCI)
